# Measured values from patent publication US20250283038A1, “COMPOUNDS INDUCING PRODUCTION OF PROTEINS BY IMMUNE CELLS” (UNIVERSITE PARIS CITE, priority 2022, published 2025).
# Tested on: human B cells
# Test: IL-10 induction in human B cells cultivated with anti-IgM plus CpG, IL-10 measured in cell culture supernatants
# Format: cell-based
# Details: 2 consecutive days, molecule at 0.25 μM final concentration
# Procedure: Human B cells isolated magnetically through negative selection (B Cell Isolation Kit II, human, Miltenyi ref: 130-091-151) were cultivated for 2 consecutive days in the presence of anti-IgM plus CpG in the presence of the indicated molecule (see table 3) at 0.25μM final concentration. IL-10 was measured in cell culture supernatants.
# Human B cells isolated magnetically through negative selection (B Cell Isolation Kit II, human, Miltenyi ref: 130-091-151) were cultivated for 2 consecutive days in the presence of anti-IgM plus CpG in the presence of DMSO (as control) or in the presence of the tested molecules at 0.25 microM final concentration. IL-10 was measured in cell culture supernatants. NS: non stimulated B cell culture condition.
substance,measurement,value
"N-(2-(4-fluorophenyl)imidazo[1,2-a]pyridin-6-yl)-2-methoxybenzamide [Compound 217]",II-10 Induction Mean (pg/mL) human,2.06 pg/mL
